Source: paper PMC4365380, “Synthesis and Biological Activity of Arylspiroborate Salts Derived from Caffeic Acid Phenethyl Ester” (International Journal of Medicinal Chemistry, 2015)

Biological target: T1, 5-lipoxygenase (5-LO) (Homo sapiens, UniProt P09917)
T1 construct: gene ALOX5
T1 sequence (P09917 1-674): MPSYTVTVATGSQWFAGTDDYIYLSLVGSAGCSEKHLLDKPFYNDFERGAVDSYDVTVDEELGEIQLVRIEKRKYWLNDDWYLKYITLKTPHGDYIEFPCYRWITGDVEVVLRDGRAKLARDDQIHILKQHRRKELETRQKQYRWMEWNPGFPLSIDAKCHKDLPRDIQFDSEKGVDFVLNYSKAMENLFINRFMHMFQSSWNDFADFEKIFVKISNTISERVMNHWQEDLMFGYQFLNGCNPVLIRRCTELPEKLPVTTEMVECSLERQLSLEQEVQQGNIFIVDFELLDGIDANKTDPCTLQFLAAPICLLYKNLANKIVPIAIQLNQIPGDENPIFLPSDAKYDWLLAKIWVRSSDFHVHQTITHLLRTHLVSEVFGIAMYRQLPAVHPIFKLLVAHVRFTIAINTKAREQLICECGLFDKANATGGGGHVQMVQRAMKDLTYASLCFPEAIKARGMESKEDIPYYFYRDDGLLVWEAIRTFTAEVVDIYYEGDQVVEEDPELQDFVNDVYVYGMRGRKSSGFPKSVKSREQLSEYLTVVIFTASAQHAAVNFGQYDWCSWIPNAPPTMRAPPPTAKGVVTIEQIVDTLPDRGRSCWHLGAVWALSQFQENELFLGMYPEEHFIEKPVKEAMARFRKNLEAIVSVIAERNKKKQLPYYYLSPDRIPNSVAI
T1 sequence (P20292 1-161 partner): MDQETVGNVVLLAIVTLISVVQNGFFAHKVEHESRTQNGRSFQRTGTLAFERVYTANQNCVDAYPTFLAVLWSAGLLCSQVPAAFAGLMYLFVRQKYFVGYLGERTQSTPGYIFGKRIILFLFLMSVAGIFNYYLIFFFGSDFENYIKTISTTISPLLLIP
Experiment: 5-LO product biosynthesis (RP-HPLC) in thapsigargin-stimulated human PMNL; also HEK293 cells expressing 5-LO and FLAP
Type: cell-based
Conditions: read-out: IC50 (μM) [SEM]^*

## O=C(/C=C/c1ccc(O)c(O)c1)OCCc1ccccc1 [compound 3, CAPE]
  IC50: 1.11 µM
